Data reported in PubChem BioAssay (NCI).
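Tested at 5 concentrations; 48 h exposure; 96-well plates; endpoints linearly interpolated, else capped at highest concentration. At the GI50, growth is halved. TGI denotes the concentration required for complete inhibition of growth.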

Legend:
Experiment in all cases: NCI-60 cell line screen, 48 h
[1] = tested on: U251 CNS
[2] = tested on: SF-539 CNS
[3] = tested on: MCF7 breast
[4] = tested on: SNB-19 CNS
[5] = tested on: KM12 colon
[6] = tested on: MDA-MB-435
[7] = tested on: SN12C renal
[8] = tested on: HOP-92 NSCLC
[9] = tested on: OVCAR-3 ovarian
[10] = tested on: A498 renal

Row | Compound | GI50 [1] [µM] | TGI [1] [µM] | GI50 [2] [µM] | TGI [2] [µM] | GI50 [3] [µM] | TGI [3] [µM] | GI50 [4] [µM] | TGI [4] [µM] | GI50 [5] [µM] | TGI [5] [µM] | GI50 [6] [µM] | TGI [6] [µM] | GI50 [7] [µM] | TGI [7] [µM] | GI50 [8] [µM] | TGI [8] [µM] | GI50 [9] [µM] | TGI [9] [µM] | TGI [10] [µM] | GI50 [10] [µM]
1 | COc1ccc(CCN2CCC(Nc3nc4ccccc4n3Cc3ccc(F)cc3)CC2)cc1 | 1.47 | 2.89 | 1.77 | 3.25 | 1.41 | 2.81 | 1.77 | 3.93 | 1.71 | 3.13 | 1.5 | 3 | 1.51 | 2.96 | 0.406 | 2.29 | 1.66 | 3.07 | – | –
2 | OCC1OC2OC3C(CO)OC(OC4C(CO)OC(OC5C(CO)OC(OC6C(CO)OC(OC7C(CO)OC(OC1C(O)C2O)C(O)C7O)C(O)C6O)C(O)C5O)C(O)C4O)C(O)C3O (stereo not given) (tested in a mixture with another compound) | – | > 100 | – | > 78.8 | – | > 100 | – | > 100 | – | > 100 | – | 40.7 | – | > 100 | – | > 100 | – | > 100 | > 100 | –
3 | COC1=CC(c2ccc[nH]2)=N/C1=C\c1[nH]c(C)c(C(C)=O)c1C | 1.19 | > 57.2 | 2.15 | 54.4 | 1.05 | > 100 | 24.2 | > 100 | 0.262 | > 100 | 0.299 | > 100 | 4.46 | > 100 | 0.671 | 5.13 | 0.178 | > 100 | 57 | 18.1
4 | O=C(O)c1c[nH]c2c(OCc3ccccc3)c3ccccc3c(O)c2c1=O | 2.43 | 5.19 | 19.7 | 36.4 | 14.9 | 34.3 | 17.7 | 42.9 | 12.6 | 29.4 | 2.18 | 4.08 | 11.3 | 23.3 | – | – | 1.86 | 11.8 | – | –
5 | H-HIIKKIRTWYRKAWHVLGKV-NH2 | 7.17 | > 100 | 2.14 | 5.31 | 2.05 | 4.58 | 18.3 | 62 | 2.49 | 6.58 | 5.15 | 65.9 | 2.96 | 13 | 2.11 | 6.75 | 10.4 | 39.3 | – | –
6 | Cc1nn(-c2ccccc2)c2nc3c(nc12)C1=NCCN1C(c1ccc(Cl)cc1)N3 (stereo not given) | 2.21 | 5.98 | 1.94 | 4.23 | – | – | 9.91 | 26.9 | 3.62 | 12.2 | 1.85 | 3.74 | 11.4 | 25.2 | 2 | 9.69 | 2.63 | 7.18 | 17.9 | 4.01
7 | O=C1c2cc([N+](=O)[O-])cc3cc([N+](=O)[O-])cc(c23)C(=O)N1CCCNCCNCCCN1C(=O)c2cc([N+](=O)[O-])cc3cc([N+](=O)[O-])cc(c23)C1=O | – | 3.49 | – | 1.26 | – | 11.7 | – | > 23.3 | – | 2.51 | – | – | – | 2.2 | – | 1.82 | – | 2.35 | 13.4 | –
8 | N#C/C(=C1C=C/C(=N\O)C(Cl)=C\1)c1ccccc1 | – | – | 1.34 | 5 | 0.321 | 11.5 | 22.1 | > 100 | 0.772 | 10.4 | 0.542 | 2.66 | 3.19 | 13 | – | – | 3.31 | 17 | 64.7 | 3.34
9 | Cc1ccc(NC2=C(Cl)C(=O)N(Cc3ccccc3)C2=O)cc1Cl | 3.75 | 15.9 | – | – | 3.3 | 13.7 | 11.2 | 34.7 | 13.7 | 26.6 | 5.29 | 25.7 | 3.4 | 15.8 | – | – | 3.82 | 15 | – | –
10 | COc1ccc(-c2nc(N3CCOCC3)c3sc(CN(C)c4ncc(C(=O)NO)cn4)cc3n2)cn1 | – | – | 0.0101 | 0.161 | < 0.01 | 0.366 | < 0.01 | 0.0907 | – | – | < 0.01 | 0.0284 | 0.0168 | 1.27 | 0.0147 | 0.0508 | < 0.01 | 0.0282 | 0.0544 | < 0.0155
